Assay [1] has as its system ApoE-/- mice. The assay can be described thus: Plasma cytokine levels (Bioplex multiplex) in immunized ApoE-/- mice on HFD. Format: in vivo. The settings on record: mean ± SD. The text has this: (§1) Female C57BL/6 Apoe^-/- mice (Jaxmice, USA) were immunized with tcOPN-PADRE or equal amounts of PADRE peptide using Alum (Pierce) as adjuvant, followed by two booster injections after two and five weeks (FIG. 1B). During the advanced study all mice received a final booster one weak prior to termination in order to analyze the effect on immune cells (FIG. 1B). Mice were fed a high-fat diet (HFD), 21% cocoa fat, 0.15% cholesterol, starting one week after the last booster injection. For early assessment of atherosclerosis mice were kept on HFD during 8 weeks before sacrifice. Mice that were allowed to develop a more advanced stage of atherosclerosis were kept on HFD during 15 weeks (FIG. 1B). For early atherosclerosis assessment two different lengths of immunized tcOPN-PADRE peptides (SEQ ID Nos: 6 and 7) were evaluated, while for advanced atherosclerosis assessment mice were immunized with shorter tcOPN-PADRE (SEQ ID No: 6) which was based on a tcOPN of 11 amino acids (SEQ ID NO: 4). Tissue was preserved as described previously. All animal experiments were approved by the Animal Care and Use Committee. Cytokine levels for IL-1β, IL-2, IL-4, IL-5, IL-6, IL-10, IL-13, IL-17, IL-12(p70), IFNγ, TNFα and MCP-1 were analyzed in plasma using Bioplex multiplex technology (Bio-Rad) according to manufacturer's protocol. Plasma levels for OPN and tcOPN were analyzed by ELISA according to manufacturer's protocol (IBL International). Plasma cholesterol was quantified colorimetrically using Infinity Cholesterol (ThermoTrace).

Assay [2] deals with tcOPN-PADRE peptide, PADRE peptide, tcOPN protein or OPN protein. The assay can be described thus: Antibody ELISA on plasma of immunized mice. Format: in vivo. The settings on record: plasma of immunized ApoE-/- mice. As for the experimental part:
tcOPN-PADRE peptide, PADRE peptide, tcOPN protein or OPN protein was used for coating (20 μg/mL of each in PBS) microtiter plates (Nunc MaxiSorp, Nunc) over night at 4° C. Coated plates were washed with PBS with 0.05% Tween-20 and thereafter blocked with SuperBlock in Tris-buffered saline (TBS, Pierce) during 30 minutes at room temperature (RT) followed by an incubation of mouse plasma diluted 1:100 or 1:1000 in PBS-0.05% Tween-20 for 2 hours at RT. After rinsing, bound antibodies were detected using biotinylated goat anti-mouse IgGla or IgG2 antibodies (Jackson ImmunoResearch) that were incubated for 2 hours at RT. After washing, alkaline phosphatase-conjugated streptavidin (Sigma) was added and color reaction was developed using phosphatase substrate kit (Pierce). The absorbance (405 nm) was measured after 1 hour of incubation at room temperature. Mean values were calculated after subtraction of background absorbance.
On the technique in general: An ELISA detects its analyte on a solid surface through an enzyme-linked reagent.

Assay [3] has as its system ApoE-/- mice. The assay can be described thus: Atherosclerotic plaque area: en face descending aorta, aortic arch, subvalvular lesions. Format: in vivo. As to conditions: additional early study, short peptide, HFD 8 weeks.
Source text: as §1, with “All animal experiments were approved by the Animal Care and Use Committee.” left out, “Plasma cholesterol was quantified colorimetrically using Infinity Cholesterol (ThermoTrace).” left out

The subject of assay [4] is Blood monocytes from ApoE-/- mice (CD11b+). As to the kind of experiment: Transwell migration assay, blood monocytes. Format: cell-based. As to conditions: 10 ng/ml in lower chamber, 2 hours, vs buffer alone. As for the experimental part:
(§2) Monocyte cell migration was quantified in 24-well transwell inserts with polycarbonate filters (8-μm pore size) (Corning Costar). THP-1 monocytes (0.5×10^4 in 100 μl of RPMI 1640 medium) or murine blood cells from ApoE^-/- mice (25 μl in 75 μl of RPMI 1640 medium) were added to the upper chamber of the insert. The lower chamber contained 600 μl of RPMI 1640 with or without 10ng/ml tcOPN or OPN protein. The plates were incubated at 37° C. in 5% CO2 during 2 hours and migrated cells in the lower chamber were counted using flow cytometry. Blood monocytes were characterized with the monocyte FACS panel described above. In blocking experiment, tcOPN protein were pre-incubated with plasma (dilution 1:100) pooled from PADRE ctrl mice or tcOPN-PADRE mice over night at 4° C. prior to the migration experiment.

Assay [5] relates to human monocyte THP-1 cells. As to the kind of experiment: Transwell migration assay, THP-1. Format: cell-based. As to conditions: 10 ng/ml in lower chamber, 2 hours, vs buffer alone or full-length OPN. As to the method:
as §2

AKFVAAWTLKAAA (PADRE): in assay [1] (8 week HFD), the “Plasma IFNγ” value turned out to be 312 ± 225 pg/mL, the “Plasma IL-2” value worked out at 45 ± 15 pg/mL, the “Plasma IL-5” value came to 111 ± 56 pg/mL and the “Plasma IL-6” value is 33 ± 35 pg/mL. In addition, in assay [1] (8 week HFD), the “Plasma IL-10” value was 77 ± 32 pg/mL, the “Plasma IL-13” value worked out at 234 ± 129 pg/mL, the “Plasma IL-17” value was 162 ± 62 pg/mL and the “Plasma TNFα” value was found to be 26 ± 0 pg/mL. Besides, in assay [1] (8 week HFD, * significant difference PADRE vs tcOPN-PADRE), the “Plasma MCP-1” value worked out at 835 ± 187 pg/mL. Further, in assay [1] (15 week HFD), the “Plasma IFNγ” value was 48 ± 24 pg/mL, the “Plasma IL-2” value stood at 43 ± 21 pg/mL, the “Plasma IL-4” value was found to be 21 ± 7 pg/mL and the “Plasma IL-5” value was 110 ± 32 pg/mL. In assay [1] (15 week HFD), the “Plasma IL-6” value stood at 28 ± 11 pg/mL, the “Plasma IL-10” value came to 172 ± 64 pg/mL, the “Plasma IL-13” value was found to be 1153 ± 439 pg/mL and the “Plasma IL-17” value worked out at 148 ± 27 pg/mL. In assay [1] (15 week HFD), the “Plasma MCP-1” value was 703 ± 386 pg/mL and the “Plasma TNFα” value was 712 ± 249 pg/mL. Further, in assay [2], the “Antibodies (IgG) against the tcOPN-PADRE peptide” value is reported as “did not develop antibodies” and the “Antibodies recognizing PADRE peptide” value is on record as “low levels”.

For the substance “AKFVAAWTLKAAAGRGDSLAYGLR (PADRE-tcOPN short) [short tcOPN-PADRE peptide]”, in assay [3], the “Plaque area in the aortic arch, en face preparations” value was “smaller plaque area” and the Subvalvular plaque area result is on record as “recapitulated the difference”.

On to “tcOPN: recombinant OPN cleaved with thrombin, C-terminal fragment removed (SLAYGLR)”, for which the “Monocyte migration towards the protein” value in assay [4] and in assay [5] was “increased migration” in each case.

(Values after patent US20180289780A1, “OSTEOPONTIN AND THROMBIN-CLEAVED FRAGMENT THEREOF AND THEIR USE IN ATHEROSCLEROSIS PREVENTION, INFLAMMATION REDUCTION AND IMPROVING PLAQUE STABILITY” (CardioVax, LLC, priority 2017, published 2018).)
